Consider one compound from patent EP4341264B1, “PYRROLOPIRIMIDINE DERIVATIVES AND THEIR USE IN THE TREATMENT OF LEISHMANIASIS” (Drugs for Neglected Diseases Initiative, priority 2021, dated 2022).

Data set [1] has as its system L. donovani (MHOM/ NP/2003/BPK282/0-cl4). The data set is described as follows: Leishmania clinical isolate panel screen (drug-susceptibility assay in infected macrophages). The note with it: Macrophage, read-out: IC50 Mean ± SEM. Type of data set: cell-based. The procedure:
(§1) Female Swiss mice (BW ~20 g) were purchased from a commercial source (Janvier France) and kept in quarantine for 1 week. The animals were housed in group and drinking water was available ad libitum. To harvest peritoneal macrophages, the mice were first stimulated by intraperitoneal injection of 1 mL of starch solution (2% in PBS). After 24 h, macrophages were collected in RPMI-1640 supplemented with 5% iFCS, 2% penicillin-streptomycin and 1% L-glutamine by peritoneal lavage and immediately distributed in a 96-well plate at a concentration of 30,000 cells/well. The cells were incubated for 24 h at 37°C and 5 % CO2 to allow cell attachment.
(§2) Strains of L. donovani, L. infantum, L. major, L. tropica, L. guyanensis and L. panamensis were selected based on their intrinsic susceptibility to the commonly used reference drugs and their geographic distribution. All strains were cultivated in HOMEM promastigote medium and sub-cultured twice weekly. Passage numbers were kept as low as possible to avoid loss of virulence. For infection of the macrophages, metacyclic promastigote cultures were examined light microscopically for the abundant presence of metacyclic promastigotes. Upon counting, promastigotes were centrifuged and diluted in RPMI-1640 to the desired concentration. The infection ratio varied based on the ability of the strain to adequately infect the host cells and ranged from 5 to 20 promastigotes per macrophage. Macrophages were infected by adding 100 µL promastigote suspension per well onto the macrophages. When ex vivo amastigotes were available (only for two lab strains), macrophages were infected at a ratio of 10/1.
(§3) Stock solutions of the DNDi lead compounds were prepared in 100% DMSO at 20 mM and robotically further diluted in water. Miltefosine (MIL) was included as reference and formulated in water at a concentration of 20 mM. The medium was discarded from the plates to remove any residual non-internalized promastigotes and replaced by fresh RPMI-1640 medium supplemented with iFBS, P/S and L-glutamine (as described above). Next, a 2-fold dilution series of each lead compound was added to the plate with 64 µM as the highest in test-concentration for the DNDi leads and 40 µM for MIL. The 96-well plates were further incubated at 34-37°C and 5% CO2. For staining, the culture medium was discarded, and the plates were left to dry for 2-4 hours. The cells were then fixated with methanol for 10 minutes and stained with a 1/5 Giemsa dilution in water for 15 minutes. The percentage infection-inhibition compared to a positive control (untreated infected macrophages) was microscopically determined and used to calculate the IC50 and IC90 values.

Data set [2] has as its system L. major (MHOM/IL/81/Friedlin). Described as above. The conditions noted are these: Macrophage, Cutaneous leishmaniasis, L. major (MHOM/IL/81/Friedlin), Miltefosine: mean only, read-out: IC50 Mean ± SEM. It counts as cell-based. The procedure: as §1, §2, §3
Data set [3] relates to L. infantum (LEM3323-cl4 PMM). The description is as above. The note with it: Macrophage, read-out: IC50 Mean ± SEM. It counts as cell-based. The procedure: as §1, §2, §3
Data set [4] relates to L. infantum (MHOM/ES/2016/LLM-2346). The description is as above. The note with it: Macrophage, Visceral leishmaniasis, L. infantum (MHOM/ES/2016/LLM-2346), Miltefosine: mean only, read-out: IC50 Mean ± SEM. It counts as cell-based. The procedure:
as §1, §2, §3

In data set [5] the test system is L. infantum (MHOM/BR/2007/WC (L3015)). The description is as above. Type of data set: cell-based. The conditions noted are these: Macrophage, Visceral leishmaniasis, L. infantum (MHOM/BR/2007/WC (L3015)), Miltefosine: mean only, read-out: IC50 Mean ± SEM. The procedure: as §1, §2, §3
The test system of data set [6] is L. major (MHOM/SA/85/JISH118). The data set is described as above. It counts as cell-based. The conditions noted are these: Macrophage, Cutaneous leishmaniasis, L. major (MHOM/SA/85/JISH118), Miltefosine: mean only, read-out: IC50 Mean ± SEM. The procedure: as §1, §2, §3
The subject of data set [7] is L. infantum (MHOM/FR/96/LEM3323-cl4). The data set is described as above. It counts as cell-based. The conditions noted are these: Macrophage, Visceral leishmaniasis, L. infantum (MHOM/FR/96/LEM3323-cl4), Miltefosine: mean only, read-out: IC50 Mean ± SEM. The procedure:
as §1, §2, §3

The test system of data set [8] is L. panamensis (MHOM/PA/71/LS94). The description is as above. It counts as cell-based. The note with it: Macrophage, Cutaneous leishmaniasis, L. panamensis (MHOM/PA/71/LS94), Miltefosine: mean only, read-out: IC50 Mean ± SEM. The procedure: as §1, §2, §3
Data set [9] has as its system L. donovani (MHOM/NP/03/BPK275/0-cl18). The description is as above. Type of data set: cell-based. The note with it: Macrophage, Visceral leishmaniasis, L. donovani (MHOM/NP/03/BPK275/0-cl18), Miltefosine: mean only, read-out: IC50 Mean ± SEM. The procedure: as §1, §2, §3
Data set [10] relates to L. infantum (LEM3323-cl4 MIL). The data set is described as above. It counts as cell-based. The conditions noted are these: Macrophage, read-out: IC50 Mean ± SEM. The procedure: as §1, §2, §3
The test system of data set [11] is L. guyanensis (MHOM/PE/02/PER 054/0). The data set is described as above. It counts as cell-based. The conditions noted are these: Macrophage, Cutaneous leishmaniasis, L. guyanensis (MHOM/PE/02/PER 054/0), Miltefosine: mean only, read-out: IC50 Mean ± SEM. The procedure: as §1, §2, §3
Data set [12] has as its system L. tropica (MHOM/AF/2015/HTD7). The description is as above. It counts as cell-based. The note with it: Macrophage, Cutaneous leishmaniasis, L. tropica (MHOM/AF/2015/HTD7), Miltefosine: mean only, read-out: IC50 Mean ± SEM. The procedure:
as §1, §2, §3

The test system of data set [13] is L. donovani (MHOM/ET/67/L82). The conditions noted are these: cited from earlier work.
Data set [14] deals with L. infantum (MHOM/MA/67/ITMAP263). The note with it: cited from earlier work.
Another data set deals with MRC-5SV2 cells. The conditions noted are these: printed in SI column; data from IJP: Drugs and Drug Resistance, 2018, 8, 81-86; cited from earlier work.
In the next data set the test system is L. infantum. The data set is described as follows: VL hamster model in vivo efficacy (reduction of parasite load vs. control). The conditions noted are these: 40 mg/kg qd, 5 days. The procedure:
The in vivo efficacy of the compounds C1, C3, C4, and miltefosine was evaluated in a VL hamster model infected with L. infantum. The in vivo studies were performed in accordance with the methods described by Van den Kerkhof et al. [IJP: Drugs and Drug Resistance, 2018, 8, Issue 1, 81-86]. Following treatment, the reduction of parasite load vs. control was determined in different body compartments (liver, spleen, and bone marrow) with results presented in Table 4. Table 4. Hamster in vivo efficacy

Like-named read-outs stand apart in the source and are kept apart here.

As for `CCCCCCCCCCCCCCCCOP(=O)([O-])OCC[N+](C)(C)C` [Miltefosine, reference compound], the concentration for half-maximal inhibition (IC50) was 2010 nM in [1]; 11300 nM in data set [2]; 20300 nM in data set [3]; 2160 nM in data set [4]; 2690 nM in data set [5]; 24000 nM in data set [6]. The IC50 is 1810 nM in [7]; 1810 nM in data set [8]; 2070 nM in data set [9]; 2010 nM in [10]; 8060 nM in [11]; 2160 nM in data set [12]. Also, the concentration for half-maximal inhibition (IC50) in data set [13] (L. donovani infected macrophages, IJP: Drugs and Drug Resistance, 2018, 8, Issue 1, 81-86) is 1800 ± 400 nM; in [13] (L. donovani, data from IJP: Drugs and Drug Resistance, 2018, 8, 81-86), 1800 ± 400 nM; in [14] (L. infantum infected macrophages, IJP: Drugs and Drug Resistance, 2018, 8, Issue 1, 81-86), 3500 ± 400 nM; in data set [14] (L. infantum, data from IJP: Drugs and Drug Resistance, 2018, 8, 81-86), 3500 ± 400 nM. In addition, the cytotoxic concentration (CC50) in the data set with MRC-5SV2 cells was 38500 nM. The “% Parasite reduction Bone marrow” value with L. infantum (bone marrow) is given as 92.1-99.0%. Besides, in the data set with L. infantum (liver), the “% Parasite reduction Liver” value was 97.0-98.2%. Besides, in the data set on L. infantum (spleen), the “% Parasite reduction Spleen” value is 95.7-99.5%.
